Source: patent US9416115B2, “Fused heterocyclic compounds as ion channel modulators” (Gilead Sciences, Inc., priority 2013, dated 2016)

Assays:
[1] = target: T1, hNaV1.2 (SCN2A) (Homo sapiens, UniProt Q99250); assay: Use-dependent inhibition of the CNS Nav1.2 sodium channel; assay type: cell-based; conditions: use-dependent block, 25 Hz, pulse 20, read-out: Nav1.2 UDB 25 Hz 10 uM
T1 construct: expressed in transfected cells
Experimental: HEK-293 cells stably expressing wild-type (WT) hNaV1.2 (SCN2A NCBI # NM_021007.2, SCN1B NCBI # NM_001037.4, SCN2B NCBI # NM_004588.2) were used to record INa. Cells are maintained with standard tissue culture procedures and stable channel expression is maintained with 800 ug/mL G418 and 3 ug/mL Puromycin in the culture medium. Unless otherwise noted, all reagents are purchased from Sigma-Aldrich (St Louis, Mo., U.S.A.).
Assays measuring Use-Dependent Block (UDB) of Nav1.2 are performed on an automated electrophysiology platform, QPatch 16X or QPatch HT (Sophion Bioscience, Copenhagen, Denmark), using the whole cell patch clamp technique to measure currents through the cell membrane. Series resistance compensation is set to 100% and series resistance and whole-cell compensation are performed automatically. Currents stored in the Sophion Bioscience Oracle database (Sophion Bioscience, Copenhagen, Denmark). Analysis is performed using QPatch Assay software and data are compiled in Excel 2010 (Microsoft, Seattle, Wash., U.S.A.).
The internal (pipette) solution consists of (in mM) 105 CsF, 10 NaF, 20 CsCl, 2 EGTA, 10 HEPES, 10 Dextrose with a pH of 7.35 and osmolarity of 300 mOsmol/kg. The external (bath) solution contains in (mM): 145 NaCl, 4 KCl, 1.8 CaCl2, 1 MgCl2, 10 dextrose, 10 HEPES, with a pH of 7.35 and osmolarity of 310 mOsmol/kg. Experiments are carried out at 23-25° C.
Compound stocks are routinely made by the Gilead Sample Bank in vials to 10 mM in dimethyl sulfoxide (DMSO). In some cases, when compounds are not soluble in DMSO, they are made in 100% ethanol. Stocks are sonicated as necessary. […]
Cells are allowed to stabilize for 10 min after establishment of the whole-cell configuration before current is measured. The test compound is applied 2 times at 60 second intervals. After the second compound addition, a 200 second wait period was imposed to allow for equilibration. Leak currents are subtracted by using an online P/4 procedure and all currents are low-pass Bessel filtered at 5 kHz and digitized at […].
Results are presented as mean percentage inhibition.
Use-dependent block of Nav1.2 peak current is measured during pulse number 20 of a voltage pulse train (0 mV, 20 ms, 20 pulses, 25 Hz) from a holding potential of −120 mV.
Currents are normalized to the peak current recorded in response to the first pulse in each frequency train. The voltage protocol for UDB was performed in the absence and presence of compound and percentage inhibition was calculated with respect to the compound free condition.

[2] = target: wild-type human cardiac sodium channel, hNav1.5 (Homo sapiens, UniProt Q14524); assay: Late INa screening assay (QPatch whole cell patch clamp, Tefluthrin-induced late current); assay type: cell-based; conditions: HEK293 hNav1.5, percent block of late INa
Chain of wild-type human cardiac sodium channel, hNav1.5 (Q14524 whole entry): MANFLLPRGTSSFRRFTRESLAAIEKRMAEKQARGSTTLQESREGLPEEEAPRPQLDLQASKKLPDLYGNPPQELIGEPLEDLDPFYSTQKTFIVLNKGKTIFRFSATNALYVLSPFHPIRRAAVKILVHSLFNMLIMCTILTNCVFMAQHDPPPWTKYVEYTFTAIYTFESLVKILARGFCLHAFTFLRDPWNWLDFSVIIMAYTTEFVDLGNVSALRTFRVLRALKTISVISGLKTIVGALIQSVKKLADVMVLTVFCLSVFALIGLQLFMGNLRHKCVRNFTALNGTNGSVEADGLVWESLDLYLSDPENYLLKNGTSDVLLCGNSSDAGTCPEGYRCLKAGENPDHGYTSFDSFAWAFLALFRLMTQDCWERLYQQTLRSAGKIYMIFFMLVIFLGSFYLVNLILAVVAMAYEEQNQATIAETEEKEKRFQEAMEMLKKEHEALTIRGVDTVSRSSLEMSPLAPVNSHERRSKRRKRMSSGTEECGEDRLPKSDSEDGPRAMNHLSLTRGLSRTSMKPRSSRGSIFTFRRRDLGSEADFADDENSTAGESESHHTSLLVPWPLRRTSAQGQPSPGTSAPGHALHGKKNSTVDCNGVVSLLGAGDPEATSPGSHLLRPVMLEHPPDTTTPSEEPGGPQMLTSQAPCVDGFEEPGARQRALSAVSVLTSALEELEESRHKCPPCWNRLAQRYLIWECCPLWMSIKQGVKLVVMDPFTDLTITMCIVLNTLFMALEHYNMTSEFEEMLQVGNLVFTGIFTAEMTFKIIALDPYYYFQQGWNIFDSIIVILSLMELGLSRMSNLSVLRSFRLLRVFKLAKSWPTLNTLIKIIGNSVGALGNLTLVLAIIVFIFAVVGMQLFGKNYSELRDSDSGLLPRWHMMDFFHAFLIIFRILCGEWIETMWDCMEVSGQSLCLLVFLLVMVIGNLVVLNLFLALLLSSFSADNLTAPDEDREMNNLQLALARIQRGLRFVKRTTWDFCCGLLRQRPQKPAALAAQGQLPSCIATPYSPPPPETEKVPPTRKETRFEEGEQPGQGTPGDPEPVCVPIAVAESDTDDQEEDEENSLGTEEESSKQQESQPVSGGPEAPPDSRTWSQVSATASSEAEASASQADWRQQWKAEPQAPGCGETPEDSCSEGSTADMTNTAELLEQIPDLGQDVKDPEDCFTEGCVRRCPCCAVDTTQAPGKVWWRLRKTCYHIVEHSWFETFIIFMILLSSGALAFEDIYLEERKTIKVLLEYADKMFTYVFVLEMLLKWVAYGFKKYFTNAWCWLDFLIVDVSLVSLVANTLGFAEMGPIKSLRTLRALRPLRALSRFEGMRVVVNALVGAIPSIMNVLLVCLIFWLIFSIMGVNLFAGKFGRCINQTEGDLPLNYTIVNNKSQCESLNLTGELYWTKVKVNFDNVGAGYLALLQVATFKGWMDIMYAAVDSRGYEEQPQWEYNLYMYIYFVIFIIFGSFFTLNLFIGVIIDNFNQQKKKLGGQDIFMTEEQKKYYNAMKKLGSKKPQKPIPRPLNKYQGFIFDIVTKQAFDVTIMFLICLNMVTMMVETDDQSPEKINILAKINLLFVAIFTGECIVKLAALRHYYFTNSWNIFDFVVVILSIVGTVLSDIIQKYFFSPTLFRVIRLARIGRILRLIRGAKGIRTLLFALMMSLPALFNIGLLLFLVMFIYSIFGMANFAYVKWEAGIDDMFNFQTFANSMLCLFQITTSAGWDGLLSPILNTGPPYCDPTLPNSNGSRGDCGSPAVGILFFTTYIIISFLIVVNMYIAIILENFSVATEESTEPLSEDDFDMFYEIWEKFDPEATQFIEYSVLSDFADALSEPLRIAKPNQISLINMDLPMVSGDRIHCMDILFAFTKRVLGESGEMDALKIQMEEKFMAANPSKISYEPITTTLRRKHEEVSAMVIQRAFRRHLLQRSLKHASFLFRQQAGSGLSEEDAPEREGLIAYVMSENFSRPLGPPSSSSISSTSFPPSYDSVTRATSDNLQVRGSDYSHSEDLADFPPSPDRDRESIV
Experimental: The cardiac late sodium current (Late INa) and peak sodium current (Peak INa) assays are performed on an automated electrophysiology platform, QPatch 16X or QPatch HT (Sophion Bioscience, Copenhagen, Denmark) using the whole cell patch clamp technique to measure currents through the cell membrane. The assay uses an HEK293 (human embryonic kidney) cell line heterologously expressing the wild-type human cardiac sodium channel, hNav1.5, purchased from Millipore (Billerica, Mass.). No beta subunits were coexpressed with the Na channel alpha subunit. Cells are maintained with standard tissue culture procedures and stable channel expression is maintained with 400 μg/mL Geneticin in the culture medium. Experiments are carried out at 23-25° C.
For both the Late INa and Peak INa assays, series resistance compensation is set to 100% and series resistance and whole-cell compensation are performed automatically. Currents are digitized at 25 kHz and low-pass filtered at 5 kHz and stored in the Sophion Bioscience Oracle database (Sophion Bioscience, Copenhagen, Denmark). Analysis is performed using QPatch Assay software and data are compiled in Excel 2010 (Microsoft, Seattle, Wash., U.S.A.).
Compound stocks are routinely made by the Gilead Sample Bank in vials to 10 mM in dimethyl sulfoxide (DMSO). In some cases, when compounds are not soluble in DMSO, they are made in 100% ethanol. Stocks are sonicated as necessary. The extracellular solution for screening Late INa is composed of: 140 mM NaCl, 4 mM KCl, 1.8 mM CaCl2, 1 mM MgCl2, 10 mM HEPES and 10 mM Dextrose with pH adjusted to 7.35 using NaOH. The intracellular solution contains: 105 mM CsF, 20 mM CsCl, 10NaF, 2 mM EGTA, 10 mM HEPES and 10 mM Dextrose with pH adjusted to 7.35 with CsOH. Compounds are diluted in extracellular solution using a MicroLab Nimbus (Hamilton Robotics, Reno, Nev.) to between 0.3 and 3 μM in glass vials and transferred to glass well plates before robotic addition to the cells. The 0 mM Na extracellular solution (0Na-ECF) used at the end of each experiment for the Late INa and Peak INa assays to measure baseline current contains: 140 Choline-Cl; 4 mM KCl, 1.8 mM CaCl2; 1 mM MgCl2; 10 mM HEPES and 10 mM Dextrose with pH was adjusted to 7.35 with CsOH.
For the Late INa assay, sodium channels are activated every 10 seconds (0.1 Hz) by depolarizing the cell membrane to −20 mV for 250 milliseconds (ms) from a holding potential of −120 mV.
Compounds were tested to determine their activity in blocking the late sodium current. Late INa was generated by adding 10 μM Tefluthrin (pyrethroid) to the extracellular solution. For the purposes of the screening, Late INa is defined as the mean current between […] during the voltage step to −20 mV. After establishing the whole cell recording configuration, Late INa activator is added to each well 4 times over a 15 minute period so that the late component of the Na current reaches a stable value. Compounds were then added (typically at 0.3 or 1 μM), in the presence of the Late Na^+ activator, with 3 additions over the course of 5 minutes. Measurements were made at the end of exposure to the third compound addition and values were normalized to the current level when all Na^+ was removed from the extracellular solution after two additions of 0Na-ECF.
Results are reported as percent block of late INa and results were analyzed by incorporating rundown correction for the Late INa.

T1 sequence (Q99250 whole entry): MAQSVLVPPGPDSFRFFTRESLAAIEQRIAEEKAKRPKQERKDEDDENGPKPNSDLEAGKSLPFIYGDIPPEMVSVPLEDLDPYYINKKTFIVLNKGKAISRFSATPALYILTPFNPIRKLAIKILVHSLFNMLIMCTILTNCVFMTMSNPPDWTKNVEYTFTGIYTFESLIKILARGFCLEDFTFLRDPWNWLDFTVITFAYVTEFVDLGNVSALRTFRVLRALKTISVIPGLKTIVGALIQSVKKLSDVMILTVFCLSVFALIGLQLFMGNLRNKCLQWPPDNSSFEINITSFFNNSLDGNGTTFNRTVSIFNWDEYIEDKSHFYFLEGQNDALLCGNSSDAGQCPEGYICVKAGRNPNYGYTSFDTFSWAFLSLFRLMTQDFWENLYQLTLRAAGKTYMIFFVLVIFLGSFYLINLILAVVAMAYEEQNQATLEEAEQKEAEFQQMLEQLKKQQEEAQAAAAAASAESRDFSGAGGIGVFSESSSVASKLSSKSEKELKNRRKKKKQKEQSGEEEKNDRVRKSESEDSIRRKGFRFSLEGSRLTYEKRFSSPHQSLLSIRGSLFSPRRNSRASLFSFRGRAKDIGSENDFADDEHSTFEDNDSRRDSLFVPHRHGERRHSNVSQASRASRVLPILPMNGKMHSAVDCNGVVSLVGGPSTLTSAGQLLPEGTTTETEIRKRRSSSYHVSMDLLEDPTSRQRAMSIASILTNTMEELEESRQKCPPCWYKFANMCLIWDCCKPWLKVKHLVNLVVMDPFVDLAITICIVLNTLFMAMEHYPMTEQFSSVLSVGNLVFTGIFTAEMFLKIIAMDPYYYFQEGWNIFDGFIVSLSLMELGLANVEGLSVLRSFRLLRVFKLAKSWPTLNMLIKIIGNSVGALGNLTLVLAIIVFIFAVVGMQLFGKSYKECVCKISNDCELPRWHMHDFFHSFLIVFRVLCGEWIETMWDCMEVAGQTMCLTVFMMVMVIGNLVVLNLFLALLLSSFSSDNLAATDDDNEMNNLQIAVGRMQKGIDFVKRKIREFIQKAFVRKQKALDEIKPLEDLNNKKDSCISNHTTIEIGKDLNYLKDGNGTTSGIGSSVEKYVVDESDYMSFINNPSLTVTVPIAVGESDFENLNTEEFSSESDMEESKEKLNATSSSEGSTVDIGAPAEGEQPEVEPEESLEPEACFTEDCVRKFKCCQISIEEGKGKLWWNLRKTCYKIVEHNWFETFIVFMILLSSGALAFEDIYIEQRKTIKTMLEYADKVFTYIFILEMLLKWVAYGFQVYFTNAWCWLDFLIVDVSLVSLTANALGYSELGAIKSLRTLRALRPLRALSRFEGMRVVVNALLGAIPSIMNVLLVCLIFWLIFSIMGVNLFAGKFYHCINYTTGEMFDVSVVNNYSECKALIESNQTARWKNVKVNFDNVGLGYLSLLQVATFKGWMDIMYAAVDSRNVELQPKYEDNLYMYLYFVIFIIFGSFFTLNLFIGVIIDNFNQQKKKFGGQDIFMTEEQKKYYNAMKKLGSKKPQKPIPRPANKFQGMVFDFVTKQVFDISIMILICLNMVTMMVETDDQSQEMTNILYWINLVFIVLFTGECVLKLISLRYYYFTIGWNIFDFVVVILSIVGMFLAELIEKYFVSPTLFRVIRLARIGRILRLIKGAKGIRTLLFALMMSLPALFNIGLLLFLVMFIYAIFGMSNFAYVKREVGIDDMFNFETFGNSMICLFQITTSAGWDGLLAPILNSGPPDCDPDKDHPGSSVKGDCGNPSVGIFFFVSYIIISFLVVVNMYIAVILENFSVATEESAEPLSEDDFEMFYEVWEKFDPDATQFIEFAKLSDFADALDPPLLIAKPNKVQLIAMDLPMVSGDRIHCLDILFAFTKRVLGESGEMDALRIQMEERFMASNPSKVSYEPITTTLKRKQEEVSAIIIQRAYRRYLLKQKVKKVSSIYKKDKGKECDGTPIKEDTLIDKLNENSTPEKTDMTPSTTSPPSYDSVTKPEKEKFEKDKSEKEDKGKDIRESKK
T1 sequence (Q07699 19-218 partner): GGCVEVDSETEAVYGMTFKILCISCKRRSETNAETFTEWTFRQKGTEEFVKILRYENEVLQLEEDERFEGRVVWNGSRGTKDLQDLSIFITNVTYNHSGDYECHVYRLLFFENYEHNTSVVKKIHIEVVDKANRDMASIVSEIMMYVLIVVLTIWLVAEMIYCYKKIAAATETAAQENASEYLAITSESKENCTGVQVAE
T1 sequence (O60939 30-215 partner): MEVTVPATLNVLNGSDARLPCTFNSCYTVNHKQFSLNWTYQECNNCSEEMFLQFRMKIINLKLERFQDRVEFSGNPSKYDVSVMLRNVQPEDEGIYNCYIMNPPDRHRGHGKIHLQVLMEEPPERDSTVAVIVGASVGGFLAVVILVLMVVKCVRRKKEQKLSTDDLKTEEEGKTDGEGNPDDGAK

| SMILES | inhibition at 10 µM [1] [%] | inhibition at 0.3 µM [2] [%] | inhibition at 1 µM [2] [%] |
| --- | --- | --- | --- |
| FC(F)(F)Oc1ccc(-c2ccc3onc(OCc4ncccn4)c3c2)cc1 [Example 1, 3-(pyrimidin-2-ylmethoxy)-5-(4-(trifluoromethoxy)phenyl)benzo[d]isoxazole] | 10.2 | 55 | 66.2 |
| Cc1cc(OC(F)(F)F)ccc1-c1ccc2onc(OCc3ncccn3)c2c1 [Example 3, 5-(2-methyl-4-(trifluoromethoxy)phenyl)-3-(pyrimidin-2-ylmethoxy)benzo[d]isoxazole] | < 5 |  | 52.6 |
| COc1cc(OC(F)(F)F)ccc1-c1ccc2onc(OCc3ncccn3)c2c1 [Example 4, 5-(2-methoxy-4-(trifluoromethoxy)phenyl)-3-(pyrimidin-2-ylmethoxy)benzo[d]isoxazole] | 13.9 | 29.7 | 62.9 |
| Cc1ccnc(COc2noc3ccc(-c4ccc(OC(F)(F)F)cc4)cc23)n1 [Example 5, 3-((4-methylpyrimidin-2-yl)methoxy)-5-(4-(trifluoromethoxy)phenyl)benzo[d]isoxazole] | < 5 | 38.2 | 54.5 |
| Fc1cc(C(F)(F)F)ccc1-c1ccc2onc(OCc3ncccn3)c2c1 [Example 6, 5-(2-fluoro-4-(trifluoromethyl)phenyl)-3-(pyrimidin-2-ylmethoxy)benzo[d]isoxazole] | < 5 |  | 51.1 |
| Cc1cc(-c2ccc3onc(OCc4ncccn4)c3c2)ccc1OC(F)(F)F [Example 7, 5-(3-methyl-4-(trifluoromethoxy)phenyl)-3-(pyrimidin-2-ylmethoxy)benzo[d]isoxazole] | < 5 |  | 47.5 |
| Fc1cc(-c2ccc3onc(OCc4ncccn4)c3c2)ccc1Cl [Example 8, 5-(4-chloro-3-fluorophenyl)-3-(pyrimidin-2-ylmethoxy)benzo[d]isoxazole] | < 5 |  | 52.6 |
| FC(F)(F)c1ccc(-c2ccc3onc(OCc4ncccn4)c3c2)cc1 [Example 9, 3-(pyrimidin-2-ylmethoxy)-5-(4-(trifluoromethyl)phenyl)benzo[d]isoxazole] | < 5 | 36.4 | 58.9 |
| FC(F)(F)Oc1cccc(-c2ccc3onc(OCc4ncccn4)c3c2)c1 [Example 10, 3-(pyrimidin-2-ylmethoxy)-5-(3-(trifluoromethoxy)phenyl)benzo[d]isoxazole] | < 5 |  | 41 |
| COc1cc2onc(OCc3ncccn3)c2cc1-c1ccc(Cl)c(F)c1 [Example 13, 5-(4-chloro-3-fluorophenyl)-6-methoxy-3-(pyrimidin-2-ylmethoxy)benzo[d]isoxazole] | 5.6 |  | 35.1 |
| COc1cc2onc(OCc3ncccn3)c2cc1-c1ccc(OC(F)(F)F)c(C)c1 [Example 14, 6-methoxy-5-(3-methyl-4-(trifluoromethoxy)phenyl)-3-(pyrimidin-2-ylmethoxy)benzo[d]isoxazole] | 9.6 |  | 46.7 |
| COc1cc2onc(OCc3ncccn3)c2cc1-c1ccc(F)c(Cl)c1 [Example 15, 5-(3-chloro-4-fluorophenyl)-6-methoxy-3-(pyrimidin-2-ylmethoxy)benzo[d]isoxazole] | < 5 |  | 32.2 |
| Cc1cc(-c2ccc(OC(F)(F)F)cc2)cc2c(OCc3ncccn3)noc12 [Example 16, 7-methyl-3-(pyrimidin-2-ylmethoxy)-5-(4-(trifluoromethoxy)phenyl)benzo[d]isoxazole] | 18 |  | 54.2 |
| COc1cc(-c2ccc(OC(F)(F)F)cc2)cc2c(OCc3ncccn3)noc12 [Example 22, 7-methoxy-3-(pyrimidin-2-ylmethoxy)-5-(4-(trifluoromethoxy)phenyl)benzo[d]isoxazole] | 40 | 17.7 | 55.9 |
| Cc1cc2onc(OCc3ncccn3)c2cc1-c1ccc(C(F)(F)F)cc1F [Example 28, 5-(2-fluoro-4-(trifluoromethyl)phenyl)-6-methyl-3-(pyrimidin-2-ylmethoxy)benzo[d]isoxazole] | < 5 | 26.7 | 54.4 |
| FC(F)(F)Oc1ccc(-c2ccc3onc(OCC4CCO4)c3c2)cc1 (stereo not drawn) [Example 42, 3-(oxetan-2-ylmethoxy)-5-(4-(trifluoromethoxy)phenyl)benzo[d]isoxazole] | < 5 | 17.5 | 57.3 |
| CCn1ccnc1COc1noc2ccc(-c3ccc(OC(F)(F)F)cc3)cc12 [Example 47, 3-((1-ethyl-1H-imidazol-2-yl)methoxy)-5-(4-(trifluoromethoxy)phenyl)benzo[d]isoxazole] | 31.5 | 20 | 60.2 |
| FC(F)(F)Oc1ccc(-c2ccc3onc(OCc4ncco4)c3c2)cc1 [Example 53, 3-(oxazol-2-ylmethoxy)-5-(4-(trifluoromethoxy)phenyl)benzo[d]isoxazole] | < 5 | 31.1 | 57 |
| FC(F)(F)Oc1ccc(-c2ccc3onc(OCCn4cncn4)c3c2)cc1 [Example 58, 3-(2-(1H-1,2,4-triazol-1-yl)ethoxy)-5-(4-(trifluoromethoxy)phenyl)benzo[d]isoxazole] | 14.5 | 36.7 | 55 |
| O=C1CCCN1CCOc1noc2ccc(-c3ccc(OC(F)(F)F)cc3)cc12 [Example 59, 1-(2-((5-(4-(trifluoromethoxy)phenyl)benzo[d]isoxazol-3-yl)oxy)ethyl)pyrrolidin-2-one] | 37.4 | 43.7 | 60.4 |
